Source: patent US5547965A, “Use of substituted amines for the treatment of brain function disorders” (Bayer Aktiengesellschaft, priority 1994, dated 1996)

target: Nicotine receptor; experiment: [3H]-cytisine displacement in rat brain membrane preparation; format: binding; conditions: negative common logarithm of the concentration giving 50% displacement of specifically bound [3H]-cytisine; rat brain homogenate, 22° C., 60 min
Procedure: The effect on nicotinergic receptors of the central nervous system is determined by a generally customary standard method for receptor binding studies (E. C. Hulme, Editor, Receptor-Ligand Interactions, Oxford University Press, 1992, pp 1-458). The binding was measured here by displacement of [^3 H]-cytisine by the active compounds in the rat brain membrane preparation.
Rats were sacrificed by decapitation and the entire brain was then removed immediately and processed. All following steps were carried out with cooling to 4° C. The brain was homogenized in sucrose solution (110 g of sucrose/l; 20 ml of solution per 1 g of brain mass) with the aid of a mixer. Coarse constituents were removed by centrifugation of the homogenate for 10 min at 1200 g and subsequent filtration through 5 layers of muslin. The suspension which remained (called homogenate in the following) was frozen and stored at -20° C. until use.
Buffer A for the test batch: 100 mM K2 HPO4 /KH2 PO4, pH 7.4, containing 1 g/ of bovine serum albumin.
For the determination of the displacement of [^3 H]-cytisine by the active compounds the following batch (1 ml total volume) was mixed together: 250 μl of thawed homogenate, 600 μl of buffer, 100 μl of active compound solution in buffer A (containing a concentration series in dilution steps with a factor of 10 between a maximum of 10^-2 M and a minimum of 10^-10 M of active compound, and 2 μl of methanol, from a concentrated stock solution of the active compounds), 50 μl of (^3 H)-cytisine solution in buffer A (containing 1.48 pmol of (^3 H)-cytisine, corresponding to 1.67 KBq, and 5 μl of ethanol, from a concentrated stock solution). In controls which contained no homogenate or no active compound, the missing volume was replaced by buffer A.
The batches were incubated at 22° C. in a shaking water bath for 60 min. To end incubation of the batches, 3 ml of ice-cold buffer A was added in each case and the whole solution was rapidly filtered through GF/C glass fibre filters. The filters were premoistened with a 1% strength solution of Prosil in buffer A. The filters were also washed twice with 3 ml of ice-cold buffer A each time. The filters were then removed and the radioactivity bound to the filters was determined in a liquid scintillation apparatus after addition of 10 ml of suitable scintillation cocktail.
All values were determined in duplicate and averaged. The concentration of active compound which leads to a 50% displacement of the specifically bound [^3 H]-cytisine was calculated from the concentration series by a logit transformation or by the 4-parameter logistic model (T. Chard; An Introduction to Radioimmunoassay and Related Techniques; Elsevier, Amsterdam, 1990; pp 613-171; statistical assessment by computer). The negative common logarithm of this concentration is called the pI50 in the following.

Row | Structure (SMILES) | pI30
1 | O=[N+]([O-])C=C1OCCN1Cc1ccc(Cl)nc1 [Example 14] | 6.4
2 | O=[N+]([O-])N=C1NCCN1Cc1cccnc1 [Example 12] | 5.7
3 | Cc1ccc(CN2CCNC2=C[N+](=O)[O-])cn1 [Example 9] | 6.4
4 | O=[N+]([O-])C=C1NCCN1Cc1ccc(Cl)c(F)c1 [Example 2] | 5.3
5 | NC(=N[N+](=O)[O-])N1CCN(Cc2ccc(Cl)nc2)C1 [Example 6] | 4.8
6 | N#CC=C1NCCN1Cc1ccc(Cl)nc1 [Example 11] | 5.8
7 | N#CC=C1CCCN1Cc1ccc(Cl)nc1 [Example 13] | 6.6
8 | O=[N+]([O-])C=C1NCCN1Cc1ccncc1 [Example 8] | 4.6
9 | CC(=O)NCCN1CC([N+](=O)[O-])=C2N(Cc3ccc(Cl)nc3)CCN2C1 [Example 3] | 6.5
10 | CCCC(c1ccc(F)cc1)N1CNC(NCc2ccc(Cl)nc2)=C([N+](=O)[O-])C1 (stereo not shown) [Example 1] | 6.6
11 | CN1CN(C)C(=N[N+](=O)[O-])N(Cc2ccc(Cl)nc2)C1 [Example 15] | 5.2
12 | CC(=NC#N)N(C)Cc1ccc(Cl)nc1 [Example 5] | 6.2
13 | O=[N+]([O-])C=C1NCCN1Cc1cccnc1 [Example 7] | 5.9
14 | COc1cccc(CN2CCN(Cc3ccc(Cl)nc3)C2=N[N+](=O)[O-])c1 [Example 4] | 5.1
15 | O=[N+]([O-])C=C1NCCN1c1ccc(Cl)nc1 [Example 16] | 4.6
16 | O=[N+]([O-])C=C1NCCN1Cc1cnc(Cl)s1 [Example 10] | 6.2

tested on: rats; experiment: rat forced swimming test; format: in vivo; conditions: po, 5 min, period of immobility over 5 minutes, administered between the two swimming tests
Source text: The activity of the substituted amines described in the treatment and prevention of affective disorders is confirmed with the aid of the "rat forced swimming test". This behavioural model was described for the first time by R. D. Porsolt et al. (Nature 266; 730, 1977) and today is a generally recognized in-vivo screening model for the discovery of new antidepressants. It is based on the observation that rats in a hopeless situation remain in an immobile position ("behavioural despair"). In a preliminary test, young adult rats (3-4 months old) are placed individually for 20 minutes in glass cylinders (height 40 cm, diameter 20 cm) which are filled with water to a height of 15 cm. 24 hours after this preliminary test, the animals are again transferred to the cylinders and the period of immobility is measured over a space of time of 5 minutes.
The substituted amines described are administered in the time interval between the two swimming tests. Controls receive the vehicle.

Row | Structure (SMILES) | ED50 [mg/kg]
17 | O=[N+]([O-])N=C1NCCN1Cc1cccnc1 [Example 12] | 2.5
18 | CC(=O)NCCN1CC([N+](=O)[O-])=C2N(Cc3ccc(Cl)nc3)CCN2C1 [Example 3] | 4.1
19 | O=[N+]([O-])C=C1NCCN1Cc1cnc(Cl)s1 [Example 10] | 1.5
